# Assay results taken from US20050203117A1, “Treating allergic and inflammatory conditions” (priority 2002, published 2005).
# Assay: in vivo studies of allergic bronchospasm and cough
structure (smiles),measurement,value
Clc1ccc2c(c1)CCc1cccnc1C2=C1CCNCC1 [desloratadine],effect on allergic bronchospasm and cough,inhibitory effect
